Active and inactive are the calls of the source. For most assays here, no stated cut-off is given here; in the data, actives have a measured EC50 and inactives only a lower limit.
Columns and labels:
Beta-galactosidase = Beta-galactosidase (Escherichia coli, UniProt Q8VNN2); assay: Dose response counterscreen for EBI2 assay utilizing the enzyme, b-galactosidase.; type: functional
[1] = target: T1, Apoptotic protease-activating factor 1 (Homo sapiens, UniProt O14727); assay: SAR analysis of small molecule Activators of Apaf-1 in a Fluorescent assay.; type: functional; conditions: read-out: EC50_Mean;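 further: caspase-3 cleavage of fluorogenic Rh110 DEVD substrate downstream of apoptosome activation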
T1 sequence (O14727 whole entry): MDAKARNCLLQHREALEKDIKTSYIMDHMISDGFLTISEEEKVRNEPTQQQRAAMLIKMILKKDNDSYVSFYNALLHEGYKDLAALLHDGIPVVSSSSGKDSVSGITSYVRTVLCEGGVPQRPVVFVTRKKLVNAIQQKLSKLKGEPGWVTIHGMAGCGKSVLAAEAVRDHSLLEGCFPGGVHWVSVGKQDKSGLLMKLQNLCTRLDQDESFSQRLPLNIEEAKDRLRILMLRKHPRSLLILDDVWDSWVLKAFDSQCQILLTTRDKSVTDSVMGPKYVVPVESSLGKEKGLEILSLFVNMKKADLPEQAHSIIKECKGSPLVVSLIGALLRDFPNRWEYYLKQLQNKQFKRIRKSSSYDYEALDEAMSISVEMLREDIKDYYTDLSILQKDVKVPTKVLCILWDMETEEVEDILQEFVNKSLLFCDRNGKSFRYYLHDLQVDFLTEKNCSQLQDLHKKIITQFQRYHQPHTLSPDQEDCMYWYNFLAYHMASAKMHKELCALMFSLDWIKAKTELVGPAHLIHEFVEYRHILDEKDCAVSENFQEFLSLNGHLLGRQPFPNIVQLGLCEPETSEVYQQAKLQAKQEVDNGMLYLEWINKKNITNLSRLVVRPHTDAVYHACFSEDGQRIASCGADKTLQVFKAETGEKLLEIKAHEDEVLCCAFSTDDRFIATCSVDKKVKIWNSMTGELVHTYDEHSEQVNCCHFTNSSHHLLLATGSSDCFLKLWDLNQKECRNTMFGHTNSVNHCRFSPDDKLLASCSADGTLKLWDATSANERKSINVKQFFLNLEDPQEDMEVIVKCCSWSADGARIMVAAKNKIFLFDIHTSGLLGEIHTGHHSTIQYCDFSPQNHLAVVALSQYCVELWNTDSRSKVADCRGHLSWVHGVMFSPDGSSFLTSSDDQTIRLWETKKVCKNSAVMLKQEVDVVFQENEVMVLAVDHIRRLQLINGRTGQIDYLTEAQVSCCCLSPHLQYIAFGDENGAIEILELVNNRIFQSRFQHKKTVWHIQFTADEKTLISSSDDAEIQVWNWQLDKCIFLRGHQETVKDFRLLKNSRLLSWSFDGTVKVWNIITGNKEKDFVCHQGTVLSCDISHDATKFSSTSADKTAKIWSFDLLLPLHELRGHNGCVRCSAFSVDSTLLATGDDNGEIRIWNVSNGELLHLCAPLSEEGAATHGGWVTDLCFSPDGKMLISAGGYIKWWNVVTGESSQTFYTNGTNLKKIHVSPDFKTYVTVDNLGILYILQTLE

[2] = bead-based luminescence quenchers, dual-tagged ARNT – biochemical, AlphaScreen, cherry-pick, artefact control for ARNT-TACC3 interaction inhibitor project, dose response (AID 651705); type: functional;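 further: AlphaScreen bead proximity signal that flags compounds interfering with the detection technology; potency reflects signal decrease which marks the compound as an assay artifact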
Streptokinase A = target: T2, Streptokinase A (Streptococcus pyogenes serotype M1, UniProt P10520); assay: viability-normalized secreted streptokinase activity reduction – plasminogen activation absorbance, OD405, dose response (AID 1914); type: functional, Streptococcus pyogenes M1 GAS;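 further: secreted streptokinase activity via plasminogen activation per viability signal from cell pellet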
T2 sequence (P10520 whole entry): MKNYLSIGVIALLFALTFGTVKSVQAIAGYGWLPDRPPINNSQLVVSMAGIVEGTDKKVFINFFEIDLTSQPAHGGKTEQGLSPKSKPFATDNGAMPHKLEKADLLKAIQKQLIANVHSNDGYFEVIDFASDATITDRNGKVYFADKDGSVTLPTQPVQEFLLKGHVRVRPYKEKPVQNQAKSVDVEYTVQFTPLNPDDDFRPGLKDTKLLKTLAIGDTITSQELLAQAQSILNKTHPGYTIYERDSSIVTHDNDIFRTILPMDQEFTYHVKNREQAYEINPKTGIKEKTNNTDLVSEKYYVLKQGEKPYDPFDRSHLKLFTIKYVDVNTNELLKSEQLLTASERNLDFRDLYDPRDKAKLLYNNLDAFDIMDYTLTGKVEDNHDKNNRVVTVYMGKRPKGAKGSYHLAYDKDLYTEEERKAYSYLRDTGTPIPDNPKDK

[3] = system: Streptococcus sp. 'group A'; assay: Streptococcus pyogenes SK(-)GAS viability under kanamycin – luminescence, BacTiterGlo, confirmation, counter-screen for streptokinase expression inhibitor project, dose response (AID 1900); type: functional, organism-based
Streptococcus = assay: GAS UMAA2166 growth inhibition – luminescence, BacTiterGlo, counter-screen for streptokinase expression inhibitor project, dose response (AID 1915); type: functional, organism-based;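 further: potency for reduction of bacterial viability or growth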
[4] = target: ATP-dependent molecular chaperone HSP82 (Candida albicans (strain WO-1) (Yeast), UniProt C4YTQ8); assay: steroid-induced GRE reporter decrease in yeast – S. cerevisiae, luminescence, Hsp90 inhibitor project, dose response (AID 2400); type: functional, cell-based;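 further: beta-galactosidase luminescence from glucocorticoid response element reporter as proxy for Hsp90 function; inhibitor potency where signal loss means Hsp90 inhibition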
[5] = NIH3T3 cell viability loss – ATP luminescence, mouse fibroblasts, counter-screen, dose response (AID 2010); type: functional, cell-based;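 further: cells exposed to compound for about 90 hours before reading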
[6] = Trypanosoma cruzi growth suppression in host cells – NIH3T3 host cells, beta-gal luminescence, confirmation (AID 2044); type: functional, cell-based;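 further: intracellular parasites grown in NIH/3T3 mouse fibroblasts as host cells; luminescent beta-galactosidase reporter signal from transgenic T. cruzi replicating inside host cells; inhibitors lower the luminescence signal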
[7] = fluconazole-exposed Candida albicans growth modulators – fluorescence, retest, confirmation (AID 2467); type: functional, cell-based
[8] = NIH-3T3 fibroblast cytotoxicity, dose response, cytotoxicity control, cell-based, fluorescence, Alamar Blue, secondary assay (AID 2327); type: functional;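 further: NIH-3T3 mouse fibroblasts cultured with fluconazole at 8 µg/mL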
[9] = target: T3, Serine/threonine-protein phosphatase (Candida dubliniensis (strain CD36 / CBS 7987 / NCPF 3949 / NRRLY-17841) (Yeast), UniProt B9W6M3); assay: blockers of CaCl2-induced CDRE-lacZ signaling – S. cerevisiae, luminescence, secondary, dose response (AID 2388); type: functional, cell-based;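 further: yeast reporter cells carrying a calcineurin-responsive lacZ construct stimulated with calcium chloride; luminescent beta-galactosidase reporter signal in whole cells rather than isolated phosphatase activity; potency for inhibition where a drop in reporter signal means calcineurin blockade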
T3 sequence (B9W6M3 whole entry): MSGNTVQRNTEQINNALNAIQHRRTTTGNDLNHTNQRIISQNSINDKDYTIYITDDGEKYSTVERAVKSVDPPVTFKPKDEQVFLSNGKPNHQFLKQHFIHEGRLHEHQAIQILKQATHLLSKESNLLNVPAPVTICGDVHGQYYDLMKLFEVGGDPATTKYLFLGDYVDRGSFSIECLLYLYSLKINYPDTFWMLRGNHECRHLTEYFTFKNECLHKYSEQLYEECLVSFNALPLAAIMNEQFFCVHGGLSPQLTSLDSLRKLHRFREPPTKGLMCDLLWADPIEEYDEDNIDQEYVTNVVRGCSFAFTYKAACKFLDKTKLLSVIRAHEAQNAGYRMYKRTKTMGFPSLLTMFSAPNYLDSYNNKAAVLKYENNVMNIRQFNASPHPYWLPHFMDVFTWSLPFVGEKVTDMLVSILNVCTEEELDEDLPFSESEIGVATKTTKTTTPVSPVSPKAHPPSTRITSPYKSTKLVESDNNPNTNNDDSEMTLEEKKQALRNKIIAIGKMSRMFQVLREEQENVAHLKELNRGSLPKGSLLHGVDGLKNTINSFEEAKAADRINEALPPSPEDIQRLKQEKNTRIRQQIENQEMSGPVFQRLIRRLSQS

BJ [10] = assay: BJ-TERT-LT-ST fibroblast viability loss – cell-based, RAS-independent, luminescence, dose response (AID 1935); type: functional; conditions: Homo sapiens;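 further: BJ fibroblasts immortalized with TERT plus LT and ST oncogenes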
BJ [11] = assay: BJ-TERT fibroblast viability loss – cell-based, RAS-independent, luminescence, dose response (AID 1933); type: functional; conditions: Homo sapiens
BJ [12] = assay: growth inhibition of engineered Ras-driven BJ cells – cell-based, alamar blue fluorescence, cherrypicked samples, dose response (AID 2631); type: functional; conditions: Homo sapiens;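 further: confirmatory dose-response assay in RAS-dependent BJ fibroblasts engineered with TERT, LT and ST, with cytotoxicity read by fluorescence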
[13] = target: T4, Rac GTPase-activating protein 1 (Homo sapiens, UniProt Q9H0H5); assay: blockers of MgcRacGAP-driven Rac1 GTP hydrolysis – biochemical, ADP Hunter fluorescence, primary and confirmatory, confirmation (AID 624330); type: functional
T4 sequence (Q9H0H5 whole entry): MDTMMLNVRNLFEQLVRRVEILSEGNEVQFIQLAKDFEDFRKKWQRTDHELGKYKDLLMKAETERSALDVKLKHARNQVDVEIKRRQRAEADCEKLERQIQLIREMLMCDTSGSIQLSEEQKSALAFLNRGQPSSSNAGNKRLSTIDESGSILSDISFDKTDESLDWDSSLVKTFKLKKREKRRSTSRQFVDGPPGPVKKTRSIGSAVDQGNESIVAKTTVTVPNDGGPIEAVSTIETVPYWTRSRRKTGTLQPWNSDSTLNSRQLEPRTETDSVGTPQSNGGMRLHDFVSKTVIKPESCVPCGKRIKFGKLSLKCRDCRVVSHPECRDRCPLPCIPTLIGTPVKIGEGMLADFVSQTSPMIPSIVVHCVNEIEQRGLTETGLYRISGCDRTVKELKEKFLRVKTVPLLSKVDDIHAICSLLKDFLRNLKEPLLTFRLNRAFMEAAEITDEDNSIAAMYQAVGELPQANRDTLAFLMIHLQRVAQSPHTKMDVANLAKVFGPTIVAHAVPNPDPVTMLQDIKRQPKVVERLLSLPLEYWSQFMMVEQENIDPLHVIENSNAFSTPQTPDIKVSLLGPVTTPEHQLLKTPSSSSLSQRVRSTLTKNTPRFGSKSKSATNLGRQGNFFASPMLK

[14] = DRD fibroblast viability loss – cell-based, non-viral oncogenic, luminescence, dose response (AID 1934); type: functional; conditions: Homo sapiens
BJ [15] = assay: cells; type: functional, cell-based; conditions: Homo sapiens
[16] = general mammalian cell viability loss – activator set, cherry-pick, cytotoxicity control for miR-122 modulator project, dose response (AID 720690); type: functional, cell-based;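 further: HEK293T human cells scored for general mammalian cytotoxicity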
[17] = activation of miR-122 Renilla sensor silencing – cell-based, Huh7 psiCHECK-miR122, Renilla luciferase, cherry-picked, dose response (AID 651956); type: functional;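 further: huh7 hepatoma cells stably carrying a psiCHECK-2 miR-122 sensor plasmid; renilla luciferase signal reporting endogenous miR-122 activity after 48 h compound exposure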
[18] = general mammalian cell viability loss – inhibitor set, cherry-pick, set 2, cytotoxicity control for miR-122 modulator project, dose response (AID 720697); type: functional, cell-based
Melanocortin receptor 4 = Melanocortin receptor 4 (Homo sapiens, UniProt P32245); type: functional, cell-based;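 further: Cell-based assay with luminescence read-out, confirmatory dose-response testing for agonist activity of biased ligands at MC4R; human U2OS cells with tagged receptor and beta-arrestin; potency of agonists that increase receptor coupling to beta-arrestin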
[19] = target: Heat shock protein HSP 90-alpha (Homo sapiens, UniProt P07900); type: functional, organism-based

Chain of Beta-galactosidase (Q8VNN2 whole entry): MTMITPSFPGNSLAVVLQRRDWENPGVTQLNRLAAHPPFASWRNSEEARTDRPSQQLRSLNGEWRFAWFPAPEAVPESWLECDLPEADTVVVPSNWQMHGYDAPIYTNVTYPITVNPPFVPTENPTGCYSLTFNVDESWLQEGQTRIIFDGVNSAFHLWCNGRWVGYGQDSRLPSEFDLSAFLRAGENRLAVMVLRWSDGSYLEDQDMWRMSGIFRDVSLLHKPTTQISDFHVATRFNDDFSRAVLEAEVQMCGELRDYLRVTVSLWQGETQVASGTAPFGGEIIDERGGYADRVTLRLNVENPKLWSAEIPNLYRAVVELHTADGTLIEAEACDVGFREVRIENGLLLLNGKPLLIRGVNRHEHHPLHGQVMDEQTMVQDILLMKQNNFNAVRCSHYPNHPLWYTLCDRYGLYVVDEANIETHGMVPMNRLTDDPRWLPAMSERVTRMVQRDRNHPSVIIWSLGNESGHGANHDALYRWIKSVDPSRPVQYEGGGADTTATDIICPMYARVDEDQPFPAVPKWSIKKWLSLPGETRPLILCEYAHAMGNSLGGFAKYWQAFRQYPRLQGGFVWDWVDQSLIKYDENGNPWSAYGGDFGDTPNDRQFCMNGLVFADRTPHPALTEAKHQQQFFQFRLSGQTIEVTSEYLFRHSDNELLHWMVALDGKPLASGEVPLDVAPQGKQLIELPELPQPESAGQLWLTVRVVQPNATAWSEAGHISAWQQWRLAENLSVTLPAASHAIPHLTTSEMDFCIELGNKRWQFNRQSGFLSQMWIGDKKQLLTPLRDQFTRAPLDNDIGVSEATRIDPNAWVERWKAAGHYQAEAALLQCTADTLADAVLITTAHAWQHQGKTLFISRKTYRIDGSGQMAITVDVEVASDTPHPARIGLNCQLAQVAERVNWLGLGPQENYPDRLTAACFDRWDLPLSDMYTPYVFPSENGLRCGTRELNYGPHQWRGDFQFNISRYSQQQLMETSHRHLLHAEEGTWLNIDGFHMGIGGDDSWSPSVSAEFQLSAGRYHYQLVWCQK
Chain of Melanocortin receptor 4 (P32245 whole entry): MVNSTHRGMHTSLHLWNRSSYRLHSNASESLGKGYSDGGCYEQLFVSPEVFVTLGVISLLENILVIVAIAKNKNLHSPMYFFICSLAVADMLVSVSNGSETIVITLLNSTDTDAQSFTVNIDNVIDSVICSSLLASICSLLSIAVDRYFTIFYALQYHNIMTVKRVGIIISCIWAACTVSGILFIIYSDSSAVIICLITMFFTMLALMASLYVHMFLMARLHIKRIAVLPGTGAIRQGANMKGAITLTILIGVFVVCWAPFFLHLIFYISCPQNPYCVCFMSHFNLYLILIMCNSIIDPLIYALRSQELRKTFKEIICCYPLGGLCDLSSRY
Chain of ATP-dependent molecular chaperone HSP82 (C4YTQ8 whole entry): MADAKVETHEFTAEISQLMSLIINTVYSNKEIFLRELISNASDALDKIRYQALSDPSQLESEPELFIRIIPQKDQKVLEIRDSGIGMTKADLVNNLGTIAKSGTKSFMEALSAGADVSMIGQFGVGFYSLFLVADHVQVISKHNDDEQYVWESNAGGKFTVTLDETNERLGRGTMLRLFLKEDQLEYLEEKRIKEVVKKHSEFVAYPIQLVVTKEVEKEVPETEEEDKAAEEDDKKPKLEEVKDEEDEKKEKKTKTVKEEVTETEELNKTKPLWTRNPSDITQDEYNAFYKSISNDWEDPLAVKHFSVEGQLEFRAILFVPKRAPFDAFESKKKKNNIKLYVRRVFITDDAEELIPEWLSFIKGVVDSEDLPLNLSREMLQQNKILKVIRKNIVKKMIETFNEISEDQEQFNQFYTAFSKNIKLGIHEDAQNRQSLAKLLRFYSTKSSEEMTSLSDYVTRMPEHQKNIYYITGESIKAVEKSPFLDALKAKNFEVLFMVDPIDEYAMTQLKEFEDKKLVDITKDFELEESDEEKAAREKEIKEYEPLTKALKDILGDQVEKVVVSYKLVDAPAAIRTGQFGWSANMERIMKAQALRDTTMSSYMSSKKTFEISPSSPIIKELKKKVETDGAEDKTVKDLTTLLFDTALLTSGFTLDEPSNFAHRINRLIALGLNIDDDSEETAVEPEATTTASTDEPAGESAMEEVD

Cc1ccc(NC(=O)N2CCC(O)(c3ccc(Cl)cc3)CC2)cc1
IC50 (Beta-galactosidase): > 80 µM (inactive)

O=C(c1ccco1)N1CCN(C(=O)C2CC(c3ccc(F)cc3)=NO2)CC1 (configuration not stated)
EC50 [1]: > 100 µM (inactive)

Cc1nnc(NC(=O)c2ccc(S(=O)(=O)N3CCCCC3C)cc2)o1 (configuration not stated)
AC50 [2]: 92.5 µM (active)

Cc1ccc(-c2cnc(N)n2C)cc1C
EC50 (Streptokinase A): 89.4 µM (active) | AC50 [2]: 71.8 µM (active) | EC50 [3]: 3.86 µM (active) | EC50 (Streptococcus): > 150 µM (not active)

CCN(CC(=O)NCc1cccs1)C(=O)/C=C/c1ccc(C)cc1
IC50 (Beta-galactosidase): > 80 µM (inactive)

O=C(c1ccc(-n2cccc2)cc1)N1CCN(Cc2ccccc2)CC1
IC50 (Beta-galactosidase): > 80 µM (inactive)

O=C(/C=C/c1ccc(Br)cc1)N1CCN(c2cccc(C(F)(F)F)c2)CC1
IC50 (Beta-galactosidase): > 80 µM (inactive)

N#Cc1ccc(OCC(=O)NCCCn2ccnc2)cc1
AC50 [2]: 95.7 µM (active)

CCOc1ccc(N=Nc2ccc(O)c3ncccc23)cc1
EC50 [4]: > 150 µM (inactive) | EC50 [5]: 8.06 µM (active) | EC50 [6]: 0.65 µM (active) | EC50 [7]: 1.11 µM (active) | EC50 [8]: > 150 µM (inconclusive) | EC50 [3]: 0.19 µM (active) | EC50 (Streptococcus): 1.45 µM (active) | EC50 [9]: > 180 µM (inactive)

CCOc1cc(/C=C2\CN(C)C/C(=C\c3ccc(O)c(OCC)c3)C2=O)ccc1O
EC50 (BJ [10]): 2.64 µM (inconclusive) | EC50 (BJ [11]): 3.26 µM (inconclusive) | EC50 (BJ [12]): 0.571 µM (active) | IC50 [13]: 38.9 µM (active) | EC50 [14]: 2.93 µM (active) | EC50 (BJ [15]): 4.94 µM (inconclusive)

Cc1ccc(C(=O)N2CCN(c3ccc(NC(=O)COc4ccccc4C)cc3)CC2)cc1
AC50 [16]: 30.9 µM (active) | AC50 [17]: 18.7 µM (active) | AC50 [18]: 15.2 µM (active)

O=C(COC(=O)c1ccco1)Nc1nnc(-c2ccccc2)o1
AC50 [2]: 133 µM (active)

CN(C)c1ccccc1-c1cc(NC=O)c2ncc(-c3cccc(C(F)(F)F)c3)n2c1
EC50 (Melanocortin receptor 4): > 89.2 µM (inactive)

COc1ccc(-c2cc(NC(C)=O)c3ncc(-c4ccccc4)n3c2)c(OC)c1
EC50 (Melanocortin receptor 4): > 89.2 µM (inactive)

O=CNc1cc(-c2ccsc2)cn2c(-c3ccccc3)cnc12
EC50 (Melanocortin receptor 4): > 89.2 µM (inactive)

CCOc1ccccc1NC(=O)CCS(=O)(=O)c1cc2c(cc1Br)CCN2C(=O)C1CC1
EC50 [1]: > 100 µM (inactive)

CC(=O)Nc1ccc(C(C)C)cc1
EC50 [1]: > 100 µM (inactive)

CC(=O)Nc1cc(-c2ccccc2)cn2c(-c3ccc(F)cc3)cnc12
EC50 (Melanocortin receptor 4): > 89.2 µM (inactive)

COc1ccc(S(=O)(=O)N2CCCCC2)cc1NC(=O)CCS(=O)(=O)c1ccc(C)cc1
EC50 [1]: > 100 µM (inactive)

C[C@@H]1CCCCO[C@H](CN(C)CC2CCCCC2)[C@H](C)CN([C@@H](C)CO)C(=O)c2cc(NC(=O)Nc3cccc4ccccc34)ccc2O1
AC50 [16]: 10.6 µM (active) | AC50 [17]: 11.1 µM (active) | AC50 [18]: 0.587 µM (active)

O=c1[nH]c(-c2ccccn2)nc(C(F)(F)F)c1Br
EC50 [4]: 10.7 µM (active) | EC50 [9]: > 180 µM (inactive) | AC50 [19]: 4.03 µM (active)
